In US5025024A, “Therapeutically active fluoro-substituted compound” (priority 1988, dated 1991):

Columns and labels:
[1] = Inhibition of Gastric Acid Secretion in the Conscious Male Rat; type: in vivo, male rats of the Sprague-Dawley strain; conditions: in vivo, ratio ED50 iv/ED50 id, read-out: "Bioavailability" measured by the Rough Screening Model, Rat ED50 iv/ED50 id
Experimental: (§1) Since the bioavailability model described above is time and labour intensive, and requires a large number of plasma analyses, also a rough screening model, based on relative potencies to inhibit acid secretion, has been used (see for instance: A. Goth, Medical Pharmacology, 7th ed., C. V. Mosby Company, Saint Louis 1974, p 19). Thus, the ratio (called "Bioavailability" in Table 3) between the ED50 at intravenous administration and the ED50 at intraduodenal administration was calculated.
(§2) The potency for inhibition of acid secretion has been measured in the male rat and the dog, both intravenously and intraduodenally. When it comes to relevance of the animal test data for potency of a given compound in man for the present type of compounds, it is believed that potency in man will correspond to a level somewhere between what is measured in the male rat and what is measured in the dog.
(§3) Inhibition of Gastric Acid Secretion in the Conscious Male Rat
(§4) Male rats of the Sprague-Dawley strain were used. They were equipped with cannulated fistulae in the stomach (lumen) and the upper part of the duodenum, for collection of gastric secretions and administration of test substances, respectively. A fourteen days recovery period after surgery was allowed before testing commenced.
(§5) Before secretory tests, the animals were deprived of food but not water for 20 h. The stomach was repeatedly washed through the gastric cannula, and 6 ml of Ringer-Glucose given s.c. Acid secretion was stimulated with a infusion during 3.5 h (1.2 ml/h, s.c.) of pentagastrin and carbachol (20 and 110 nmol/kg h, respectively), during which time gastric secretions were collected in 30-min fractions. Test substances or vehicle were given iv or id at 90 min after starting the stimulation, in a volume of 1 ml/kg. Gastric juice samples were titrated to pH 7.0 with NaOH, 0.1 mol/L, and acid output calculated as the product of titrant volume and concentration. Further calculations were based on group mean responses from 4-5 rats. The acid output during the periods after administration of test substances or vehicle were expressed as fractional responses, setting the acid output in the 30-min period preceding administration to 1.0. Percentage inhibition was calculated from the fractional responses elicited by test compound and vehicle. ED50 -values were obtained from graphical interpolation on log dose-response curves, or estimated from single-dose experiments assuming a similar slope for all dose-response curves. An estimation of the bioavailability was obtained by calculating the ratio ED50 iv/ED50 id. The results reported are based on gastric acid secretion during the second hour after drug/vehicle administration.

[2] = test system: gastric acid secretion; assay: as above; type: in vivo, male rats of the Sprague-Dawley strain; conditions: 2 h, pentagastrin and carbachol stimulation, second hour after administration
Experimental: as §1, §2, §3, §4, §5

[3] = test system: gastric acid secretion; assay: Inhibition of Gastric Acid Secretion in the Conscious Dog; type: in vivo, Harrier dogs; conditions: for ED50: Canis lupus familiaris, dog, histamine-stimulated, acid output 2 h after dosing
Experimental: as §2
(§6) Inhibition of Gastric Acid Secretion and Bioavailability in the Conscious Dog
(§7) Harrier dogs of either sex were used. They were equipped with a duodenal fistula for the administration of test compounds or vehicle and a cannulated ventricular fistula for the collection of gastric secretions.
Before secretory tests the animals were fasted for about 18 h but water was freely allowed. Gastric acid secretion was stimulated by a 4 h infusion of histamine dihydrochloride (12 ml/h) at a dose producing about 80% of the individual maximal secretory response, and gastric juice collected in consecutive 30-min fractions. Test substance or vehicle was given id or iv 1 h after starting the histamine infusion, in a volume of 0.5 ml/kg body weight. The acidity of the gastric juice samples were determined by titration to pH 7.0, and the acid output calculated. The acid output in the collection periods after administration of test substance or vehicle were expressed as fractional responses, setting the acid output in the fraction preceding administration to 1.0. Percentage inhibition was calculated from fractional responses elicited by test compound and vehicle. ED50 -values were obtained by graphical interpolation on log dose-response curves, or estimated from single-dose experiments under the assumption of the same slope of the dose-response curve for all test compounds. All results reported are based on acid output 2 h after dosing.

[4] = Bioavailability in the Male Rat (AUC method); type: in vivo, male rats of the Sprague-Dawley strain; conditions: id vs iv, 4 μmol/kg; for bioavailability: blood, 4 umol/kg, read-out: Bioavailability measured by the AUC-method, F %, Rat
Text: The results from tests on two different animal species, rat and dog, vary in regard to measured level of bioavailability for the same compound. We believe that the rat is the more relevant species for bioavailability testing. This is based on our belief that liver metabolism has the most predominant impact upon bioavailability, and that the liver metabolic pattern in man for this type of compounds is quite similar to that of the male rat (more so than of the female rat and the dog). Moreover, test results of bioavailability in the male rat will tend to give a broader "spread" compared with the test results in the dog, and thus the male rat model will give more clear differences in bioavailability between different compounds. Stated in another way, the bioavailability as tested in the male rat can be expected to give a better estimate of the relative differences in man between different test compounds compared with the test results obtained when using the same compounds in the dog.
(§8) Bioavailability is assessed by calculating the quotient between the area under plasma concentration (AUC) curve following intraduodenal (id) administration and intravenous (iv) administration from the rat or the dog. Low, therapeutically relevant doses, were used. This method is scientifically recognized as valid for assessing bioavailability (see for instance: M. Rowland and T. N. Tozer, Clinical Pharmacokinetics, 2nd ed., Lea & Febiger, London 1989, p 42).
Bioavailability in the Male Rat
Male adult rats of the Sprague-Dawley strain were used. One day, prior to the experiments, all rats were prepared by cannulation of the left carotid artery under anaesthesia. The rats used for the intravenous experiments, were also cannulated in the jugular vein. […]
The area under the blood concentration vs time curve, AUC, was determined by the linear trapezoidal rule and extrapolated to infinity by dividing the last determined blood concentration by the elimination rate constant in the terminal phase. The systemic bioavailability (F%) following intraduodenal administration was calculated as [formula]

[5] = Bioavailability in the Conscious Dog (AUC method); type: in vivo, Harrier dogs; conditions: plasma, id vs iv, AUCid/AUCiv, read-out: Bioavailability measured by the AUC-method, F %, Dog
Experimental: as §8, §6, §7
Blood samples for the analysis of test compound concentration in plasma were taken at intervals up to 3 h after dosing. Plasma was separated and frozen within 30 min after collection. AUC (area under the plasma concentration-time curve), extrapolated to infinite time, was calculated by the linear trapezoidal rule. The systemic bioavailability (F%) after id administration was calculated as 100×(AUCid /AUCiv).

[6] = Chemical Stability at pH 7; type: physicochemical; conditions: pH 7, 37° C., aqueous buffer solution; for half-life: read-out: Chemical Stability at pH 7, half-life (t 1/2) (converted)
Experimental: The chemical stability of various compounds of the invention has been followed kinetically at low concentration at 37° C. in aqueous buffer solution at different pH values. The results in Table 3 show the half life (t1/2) at pH 7, that is the time period after which half the amount of the original compound remains unchanged.

[7] = id, read-out: Inhibition of acid secretion, Rat ED50, id
[8] = iv, read-out: Inhibition of acid secretion, Rat ED50, iv

bioavailability [1] [%] | bioavailability [4] [%] | bioavailability [5] [%] | Chemical Stability at pH 7, half-life (t 1/2) [6] [h] | half-life [6] [h] | Bioavailability measured by the AUC-method, F %, Rat [4] [%] | Structure (SMILES) | ED50 [2, 7] [µmol/kg] | ED50 [2, 8] [µmol/kg] | ED50 ([3]; id, read-out: Inhibition of acid secretion, Dog ED50, id) [µmol/kg] | ED50 ([3]; iv, read-out: Inhibition of acid secretion, Dog ED50, iv) [µmol/kg] | inhibition (of acid secretion), Dog 1 ([3]; Dog 1, 3 μmol/kg, id) [%] | inhibition (of acid secretion), Dog 2 ([3]; Dog 2, 3 μmol/kg, id) [%]
40 | 96 | 95 | 23 | 23 | – | COc1ccnc(C[S+]([O-])c2nc3c(F)cccc3[nH]2)c1 (stereo not drawn) [Example 1, 4-fluoro-2-[[(4-methoxy-2-pyridinyl)methyl]sulfinyl]-1H-benzimidazole] | 2.4 | 0.96 | 0.9 | 0.8 | – | –
45 | 31 | – | 14 | 14 | 31 | CC(C)Oc1ccnc(C[S+]([O-])c2nc3cc(F)ccc3[nH]2)c1 (stereo not drawn) [Ref., 5-fluoro-2-[[(4-isopropoxy-2-pyridinyl)methyl]-sulfinyl]-1H-benzimidazole] | 4 | 1.8 | – | – | 95 | 98
